Reference: patent US20130261133A1, “Therapeutic Compounds for Protozoal and Microbial Infections and Cancer” (THE UNIVERSITY OF MONTANA, priority 2012, published 2013)
Values after ≈ are worked out from the molar mass of the structure shown. Values joined by “and” are separate entries in the source; they are usually repeats but may differ in a detail not shown here. Identical values can stand only once. Like-named read-outs stand apart in the source and are kept apart here.

Experiments:
[1] = test system: S. aureus 13709; test: MIC broth microdilution, Alamar Blue; format: cell-based; conditions: minimum inhibitory concentration
[2] = test system: E. faecalis; test: MIC broth microdilution, Alamar Blue; format: cell-based; conditions: minimum inhibitory concentration
[3] = test system: S. pyogenes; test: MIC broth microdilution, Alamar Blue; format: cell-based; conditions: minimum inhibitory concentration
[4] = test system: C. glabrata; test: MIC broth microdilution, Alamar Blue; format: cell-based; conditions: minimum inhibitory concentration
[5] = test system: B. subtilis; test: MIC broth microdilution, Alamar Blue; format: cell-based; conditions: minimum inhibitory concentration
[6] = test system: P. aeruginosa; test: MIC broth microdilution, Alamar Blue; format: cell-based; conditions: minimum inhibitory concentration
[7] = test system: B. anthracis; format: cell-based; conditions: minimum inhibitory concentration
[8] = test system: C. albicans; test: MIC broth microdilution, Alamar Blue; format: cell-based; conditions: minimum inhibitory concentration
[9] = test system: P. falciparum clone W2/Indochina; test: In vitro malaria assay, [3H]-hypoxanthine incorporation; format: cell-based; conditions: Plasmodium falciparum, W2, 72 h, read-out: IC50 Plasmodium
Experimental: a. In vitro Parasite Culturing: P. falciparum clone W2/Indochina was grown in continuous culture using RPMI 1640 media containing 10% heat-inactivated type A+ human plasma, sodium bicarbonate (2.4 g/L), HEPES (5.94 g/L) and 4% washed human type A+ erythrocytes. Cultures were gassed with a 90% N2, 5% O2 and 5% CO2 mixture followed by incubation at 37° C. b. Assay Preparation: Test compounds at 5 mg/mL in DMSO were diluted 1:500 and then serially diluted in duplicate over 11 concentrations. P. falciparum cultures with >70% ring stage parasites were diluted to 0.5-0.7% parasitemia and 1.5% hematocrit in RPMI 1640 media. In 96-well plates a volume of 90 μl/well of parasitized erythrocytes was added on top of 10 μL/well of the test compound. A separate plate containing chloroquine, dihydroartemisinin and atovaquone was added to each set of assay plates as control drugs. A Beckman Coulter Biomek 3000 was used to dispense test compounds, control drugs and parasitized erythrocytes into the microtiter plates. Positive and negative controls were included in each plate. Positive controls consisted of parasitized erythrocytes and negative controls consisted of non-parasitized erythrocytes at 1.5% hematocrit in RPMI 1640 media. Assay plates were placed into a modulator incubator chamber and equilibrated with 90% N2, 5% O2 and 5% CO2 mixture then incubated at 37° C. for 48 hours. After 48 hours, approximately 0.05 μCi of [^3H]-hypoxanthine monohydrochloride was added to each well of the assay plates. Plates were put back into the modulator incubation chamber, gassed with the 90% N2, 5% O2 and 5% CO2 mixture then incubated at 37° C. for an additional 24 hours. After 72 hours total incubation time the plates were frozen at −80° C. until later processed for parasite growth determinations. c. Assay Plate Processing: Assay plates were harvested using a Perkin Elmer FilterMate Harvester. The incorporation of [^3H]-hypoxanthine into nucleic acid was measured using a Perkin Elmer Topcount NXT Microplate Scintillation & Luminescence Counter. d. Data Analysis: Data analysis was performed using a custom database manager (Dataspects, Inc). Nonlinear regression analysis was used to calculate EC50.

[10] = test system: Leishmania amazonensis; test: Antileishmanial assay, Leishmania in infected macrophages (L. amazonensis); conditions: Leishmania amazonensis; for IC50: Macrophage, read-out: IC50 Leishmania in infected macrophages
[11] = test system: leishmaniasis (LV82 PM infection), liver parasitemia; test: In vivo efficacy: liver parasitemia in BALB/c mice with leishmaniasis; conditions: 10 mg/kg i.p.; for LDU mean ± SD: group mean, n=4; for % Reduction (Average) in liver parasitemia: infected BALB/c mice; for # of amastigotes per 200 nuclei: liver; for # of amastigotes per 200 nuclei / LDU: individual mice; for LDU: total liver parasitemia
Experimental: The following protocols were used to prepare the various treatments described in Table 2: • a. Miltefosine ([…] stock solution in sterile PBS): 7.5 mg miltefosine was weighed and put in a eppendorf tube, then 0.75 mL of sterile PBS was added. After vortexing, a clear solution was formed. Make 1 mg/mL solution daily by diluting 100 μL of 10 mg/mL miltefosine solution in 900 μL sterile PBS. • b. Vehicle control: 5% (v/v) DMSO, 50% (v/v) PEG 400, 10% (v/v) Ethanol, and 35% (v/v) distilled water. • c. Compound 47 (2 mg/mL solution of compound 47 in PEG 400/Ethanol vehicle): […]. Dilute the above solution 1:20 with PEG 400/EtOH/water daily. After vortexing and warming up at 37° C. for 30 min., a clear solution formed. • d. Compound 48 (2 mg/mL solution of compound 48 in PEG 400/Ethanol vehicle): 6.8 mg of compound 48 was dissolved in 0.17 mL of DMSO to make a 40 mg/mL stock solution. After vortexing, a yellowish-brown solution was formed. Diluted the above solution 1:20 with PEG 400/EtOH/water daily. After vortexing a clear solution formed. • e. Compound 50 (2 mg/mL solution of compound 50 in PEG 400/Ethanol vehicle): 8.4 mg of compound 50 was dissolved in 0.21 mL of DMSO to make a 40 mg/mL stock solution. After vortexing, a dark yellowish-brown solution was formed. Diluted the above solution 1:20 with PEG 400/EtOH/water. After vortexing a clear solution formed.
(§1) Compounds 47, 48, and 50 were then evaluated in animal studies with BALB/c mice with leishmaniasis. Compounds were delivered via i.p. injection at 10 mg/kg, with untreated, vehicle, and miltefosine controls as described in Table 2. […] Miltefosine, the only oral treatment currently available to treat leishmaniasis in humans, was also evaluated in the BALB/c mice for comparison purposes.

[12] = Body and organ weights of infected, treated BALB/c mice; format: in vivo; conditions: for Body weight / Mean body weight of mice Post-treatment: 10 mg/kg i.p.; for Body weight: individual mice, Table 4; for Mean body weight of mice Post-treatment / Mean body weight of mice Pre-treatment: group mean; for Mean body weight of mice Pre-treatment: pre-treatment (baseline)
Experimental: as §1

[13] = test system: HepG2 cells; test: Cytotoxicity against human liver (HepG2) cells, Alamar Blue; format: cell-based
Experimental: Several of these analogues were also evaluated for cytotoxicity against human liver (HepG2) cells. Of particular interest was that compounds 47 and 48 were approximately an order of magnitude less cytotoxic as compared to compound 1.
Adherent cell lines were maintained in Eagle's Minimal Essential Media (Sigma-Aldrich, St. Louis, Mo., USA) with 2 mM glutamine and Earle's Balanced Salt Solution (HyClone, Logan, Utah, USA) adjusted to contain 1.5 g/L sodium bicarbonate, 0.1 mM non-essential amino acids, 1 mM sodium pyruvate and 10% fetal calf serum. Fetal calf serum used in these assays was lot matched throughout. All cultures were maintained under a humidified 5% CO2 atmosphere at 37° C., had media refreshed twice weekly and were subcultured by trypsinization and resuspension at a ratio of 1:5 each week. Toxicity assays were conducted between passages 10-20. Target compound toxicity was measured by incubating the test compound with the cells for 4 hours, washing the cells and finally treating the cells with Alamar Blue. After 12-24 hours, the fluorescence of the reduced dye was measured. Fluorescence intensity as a function of test compound concentration was fit to the Fermi equation, using non-linear least squares regression analysis, to estimate IC50 values.

[14] = test system: Leishmania donovani; test: Antileishmanial assay, Leishmania in infected macrophages (L. donovani); conditions: for Selectivity Index: IC50 for HepG2 cells/IC50 for Leishmania donovani; for IC50: Leishmania donovani, Macrophage
[15] = HepG2, read-out: IC50 mammalian HepG2 cells
[16] = read-out: IC50 Leishmania in infected macrophages

Row | SMILES | MIC S. aureus [1] | MIC E. faecalis [2] | MIC S. pyogenes [3] | MIC C. glabrata [4] | MIC B. subtilis [5] | MIC P. aeruginosa [6] | MIC B. anthracis [7] | MIC C. albicans [8] | IC50 [9] [µg/mL] | IC50 [13, 15] [nM] | Selectivity Index [14] | IC50 [14, 16] [nM] | other results
1 | C=C[C@@H](C#CC#C[C@H](N)CCCCCCCCC)OC(C)=O [Compound 45, (3S,8R)-8-aminoheptadeca-1-en-4,6-diyn-3-yl acetate] | 1000 | 1000 | 250 | 500 | 250 | >1000 | 250 | 250 | – | – | – | – | –
2 | C=C[C@H](C#CC#C[C@@H](O)CCCCCCCCC)OC(C)=O [Compound 3, (3R,8S)-8-hydroxyheptadeca-1-en-4,6-diyn-3-yl acetate] | – | – | – | – | – | – | – | – | 8.15 | – | – | – | anti-Leishmanial activity at 10 μM [10]: no anti-Leishmanial activity; IC50 [10]: > 10000 nM
3 | CCCCCCCCCCCCCCCCOP(=O)([O-])OCC[N+](C)(C)C [Miltefosine, reference compound] | – | – | – | – | – | – | – | – | – | – | – | – | LDU mean ± SD [11]: 87.0; % Reduction (Average) in liver parasitemia [11]: 98% and 97.8%; # of amastigotes per 200 nuclei [11]: 22 and 13 and 8 and 24; LDU [11]: 109.6 and 67.7 and 35.9 and 134.9; Body weight [12]: 18.3 g and 18.0 g and 17.1 g and 20.0 g; Mean body weight of mice Post-treatment [12]: 18.4 g; Mean body weight of mice Pre-treatment [12]: 18.4 g
4 | C=C[C@@H](C#CC#C[C@H](O)CCC)OC(C)=O [Compound 20, (3S,8R)-8-hydroxyundeca-1-en-4,6-diyn-3-yl acetate] | 1000 | 1000 | 250 | 250 | 250 | >1000 | 1000 | 250 | 9.18 | 57000 ± 2000 | 290 | 197 | –
5 | C=C[C@@H](C#CC#C[C@@H](CCCCCCCCC)OS(C)(=O)=O)OC(C)=O [Compound 49, (3S,8R)-8-((methylsulfonyl)oxy)heptadeca-1-en-4,6-diyn-3-yl acetate] | 250 | 500 | 125 | >1000 | 250 | >1000 | 250 | >1000 | 2.13 | – | – | 61 | –
6 | C=C[C@H](O)C#CC#C[C@H](O)CCCCCCCCC [Compound 50, (3S,8R)-heptadeca-1-en-4,6-diyne-3,8-diol] | 16 | 16 | 8 | 8 | 2 | 4 | 1000 | 16 | 0.271 (≈ 1.03 µM) | 38000 ± 2000 | 2900 | 13 | IC50 ([13]; HepG2, read-out: IC50 against the HepG2 cell line): 38000 ± 2000 nM; LDU mean ± SD [11]: 2367.2; % Reduction (Average) in liver parasitemia [11]: 41.2%; % Reduction (Average) in liver parasitemia ([11]; listed as compound 50): 41%; # of amastigotes per 200 nuclei [11]: 628 and 557 and 643 and 612; LDU [11]: 2737.5 and 2143.9 and 2654.9 and 1932.7; Body weight [12]: 15.7 g and 14.6 g and 14.1 g and 13.4 g; Mean body weight of mice Post-treatment [12]: 14.5 g; Mean body weight of mice Pre-treatment [12]: 16.3 g; IC50 ([14]; read-out: IC50 anti-Leishmanial): 13 nM
7 | C=C[C@@H](C#CC#C[C@H](O)CCCCCCCCCCCCCCC)OC(C)=O (stereo in doubt) [Compound 44, (3S,8R)-8-hydroxytricosa-1-en-4,6-diyn-3-yl acetate] | >1000 | >1000 | >1000 | >1000 | >1000 | >1000 | >1000 | >1000 | 2.14 | – | – | 287 | –
8 | C=C[C@@H](C#CC#C[C@@H](CCCCCCCCC)NS(C)(=O)=O)OC(C)=O [Compound 46, (3S,8R)-8-(methylsulfonamido)heptadeca-1-en-4,6-diyn-3-yl acetate] | >1000 | >1000 | 8 | >1000 | 4 | >1000 | >1000 | >1000 | 4.47 | 29000 ± 1000 | 530 | 55 | –
9 | C=C[C@H](C#CC#C[C@H](O)CCCCCCCCC)OC(C)=O [Compound 2, (3R,8R)-8-hydroxyheptadeca-1-en-4,6-diyn-3-yl acetate] | – | – | – | – | – | – | – | – | 8.07 | – | – | – | anti-Leishmanial activity at 10 μM [10]: no anti-Leishmanial activity; IC50 [10]: > 10000 nM
